Data taken from patent US8263620B2, “Oxadiazole derivatives active on sphingosine-1-phosphate (SIP)” (Glaxo Group Limited, priority 2007, dated 2012).
Where a name gives a salt, the structure may show the parent alone.

How the values were obtained:
human S1P3 receptor = target: T1, human S1P3 receptor (Homo sapiens, UniProt Q99500); assay: S1P3 GTPγS assay; format: biochemical; conditions: [35S]-GTPγS SPA, S1P3 RBL-2H3 membranes, agonist
T1 construct: expressed in transfected cells; membranes
Description: For membrane preparations all steps were performed at 4° C. Rat hepatoma cells stably expressing the human S1P1 receptor or Rat Basophilic Leukaemia cells (RBL) stably expressing human S1P3 receptor were grown to 80% confluency before being harvested into 10 ml Phospho-Buffered Saline (PBS) and centrifuged at 1200 rpm for 5 minutes. After removal of the supernatant, the pellet was re-suspended and cells were homogenised within a glass Waring blender for 2 bursts of 15 secs in 200 mls of buffer (50 mM HEPES, 1 mM leupeptin, 25 μg/ml bacitracin, 1 mM EDTA, 1 mM PMSF, 2 μM pepstatin A). The blender was plunged into ice for 5 mins after the first burst and 10-40 mins after the final burst to allow foam to dissipate. The material was then spun at 500 g for 20 mins and the supernatant spun for 36 mins at 48,000 g. The pellet was resuspended in the same buffer as above but without PMSF and pepstatin A. The material was then forced through a 0.6 mm needle, made up to the required volume, (usually ×4 the volume of the original cell pellet), aliquoted and stored frozen at −80° C.
After 30 minutes pre-coupling on ice the bead and membrane suspension was dispensed into a white Greiner polypropylene LV384-well plate (5 μl/well), containing 0.1 μl of the compound. 5 μl/well [^35S]-GTPγS (0.5 nM final radioligand conc) made up in assay buffer was then added to agonist plates. The final assay cocktail (10.1 μl) was centrifuged at 1000 rpm for 5 minutes then read immediately on a Viewlux reader.
All test compounds were dissolved in DMSO at a concentration of 10 mM and were prepared in 100% DMSO using a 1 in 4 dilution step to provide 11 point dose response curves. The dilutions were transferred to the assay plates ensuring that the DMSO concentration was constant across the plate for all assays.
All data was normalized to the mean of 16 high and 16 low control wells on each plate. A four parameter curve fit was then applied.
S1P3 expressing RBL membranes (1.5 μg/well) were homogenised by passing through a 23 G needle. […] GDP 10 μM FAC and saponin 90 μg/ml FAC were also added
After 30 minutes precoupling on ice, the bead and membrane suspension was dispensed into white Greiner polypropylene LV 384-well plates (5 μl/well), containing 0.1 μl of compound. 5 μl/well [^35S]-GTPγS (0.5 nM for S1P1 or 0.3 nM for S1P3 final radioligand concentration) made in assay buffer was then added to the plates. The final assay cocktail (10.1 μl) was then sealed, spun on a centrifuge, then read immediately on a Viewlux instrument.

circulating lymphocytes = conditions: animals and man; cited from earlier work
[1] = clinical studies, first 24 hours of treatment; cited from earlier work

T1 sequence (Q99500 whole entry): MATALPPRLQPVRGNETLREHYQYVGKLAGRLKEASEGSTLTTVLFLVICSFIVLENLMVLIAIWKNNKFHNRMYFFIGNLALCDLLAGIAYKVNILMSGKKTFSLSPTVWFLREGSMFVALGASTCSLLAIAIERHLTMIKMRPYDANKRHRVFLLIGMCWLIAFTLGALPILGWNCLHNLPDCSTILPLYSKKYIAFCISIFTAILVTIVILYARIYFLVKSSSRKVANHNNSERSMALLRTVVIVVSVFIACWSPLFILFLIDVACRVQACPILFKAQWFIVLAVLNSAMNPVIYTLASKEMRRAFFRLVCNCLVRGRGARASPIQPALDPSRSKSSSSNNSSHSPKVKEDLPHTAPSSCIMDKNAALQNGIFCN

| Compound | EC50 (human S1P3 receptor) | effect on circulating lymphocytes (circulating lymphocytes) | bradycardia [1] |
| --- | --- | --- | --- |
| Cc1c(-c2noc(-c3ccc(OC(C)C)c(Cl)c3)n2)ccc2c1CCNC2CC(=O)O (stereo not drawn) [Example 3, [6-(5-{3-Chloro-4-[(1-methylethyl)oxy]phenyl}-1,2,4-oxadiazol-3-yl)-5-methyl-1,2,3,4-tetrahydro-1-isoquinolinyl]acetic acid trifluoroacetate] | > 10 µM |  |  |
| Cc1c(-c2noc(-c3ccc(OC(C)C)c(Cl)c3)n2)ccc2c1CCNC2CCCC(=O)O (stereo not drawn) [Example 5, 4-[6-(5-{3-Chloro-4-[(1-methylethyl)oxy]phenyl}-1,2,4-oxadiazol-3-yl)-5-methyl-1,2,3,4-tetrahydro-1-isoquinolinyl]butanoic acid trifluoroacetate] | > 10 µM |  |  |
| CCCCCCCCc1ccc(CCC(N)(CO)CO)cc1 [FTY720] |  | reduce circulating lymphocytes | results in bradycardia in the first 24 hours of treatment |
| Cc1c(-c2noc(-c3ccc(OC(C)C)c(C#N)c3)n2)ccc2c1CCNC2CCCC(=O)O (stereo not drawn) [Example 6, 4-[6-(5-{3-Cyano-4-[(1-methylethyl)oxy]phenyl}-1,2,4-oxadiazol-3-yl)-5-methyl-1,2,3,4-tetrahydro-1-isoquinolinyl]butanoic acid trifluoroacetate] | > 10 µM |  |  |
| Cc1c(-c2noc(-c3ccc(OC(C)C)c(C#N)c3)n2)ccc2c1CCNC2CC(=O)O (stereo not drawn) [Example 4, [6-(5-{3-Cyano-4-[(1-methylethyl)oxy]phenyl}-1,2,4-oxadiazol-3-yl)-5-methyl-1,2,3,4-tetrahydro-1-isoquinolinyl]acetic acid trifluoroacetate] | > 10 µM |  |  |
